Assay results as given in patent US9018211B2, “Inhibitors of the renal outer medullary potassium channel” (Merck Sharp & Dohme Corp., priority 2009, dated 2015).

Experiments:
Assay type in all cases: cell-based
hROMK1 (Kir1.1) = hROMK1 (Kir1.1) (Homo sapiens (Human), UniProt P48048); experiment: 86Rb+ Efflux Assay; conditions: CHO-DHFR- cells stably expressing hROMK1; 35 min incubation
Experimental: (§1) Several assays may be used to measure functional inhibition of the ROMK channel by compounds of the instant invention. One primary assay that can be used is a functional ^86Rb^+ efflux assay that measures the ability of ROMK to permeate ^86Rb^+, in the absence or presence of test compound. Under control conditions, cells loaded with ^86Rb^+ and incubated in Rb^+-free medium display a time-dependent efflux of the isotope, the rate of which depends on number of functional channels. […] This assay has been established with cell lines expressing either human, rat or dog ROMK channels, and can operate in 96- or 384-well format. Importantly, the human, rat, and dog ^86Rb^+ efflux assays can be carried out in the presence of up to 100% serum allowing, therefore, an accurate estimation of the effect of protein binding on the inhibitory activity of compounds of interest. Another ROMK functional assay makes use of the ability of thallium to permeate through open ROMK channels and increase the fluorescence of a dye previously loaded into the cells. Under control conditions, cells loaded with dye and exposed to thallium-containing medium display a time-dependent increase in fluorescence, the rate of which depends on number of functional channels. When cells are incubated in the presence of a channel inhibitor, the increase in fluorescence is attenuated in a concentration-dependent manner, and IC50 values of inhibition by compounds can be accurately determined. This assay has been established with cell lines expressing either human, or rat ROMK channels, and operates in 384-well format. Another assay for evaluation of the compounds of the instant invention and for evaluation of mechanism of action of compounds of Formula I relies on the measurement of the electrical current that is generated as potassium permeates through the channel. For these electrophysiological experiments, three different platforms, IonWorks, QPatch, or manual patch clamp, are used, depending on the experimental protocol under consideration. IonWorks operates in a 384-well format and allows accurate determination of IC50 values for inhibitors.

hROMK (hKir1.1) = hROMK (hKir1.1) (Homo sapiens (Human), UniProt P48048); experiment: Thallium Flux Assay; conditions: HEK293 cells stably expressing hROMK; FLIPR-Tetra, 30 min incubation
Chain of hROMK (hKir1.1) (P48048 whole entry): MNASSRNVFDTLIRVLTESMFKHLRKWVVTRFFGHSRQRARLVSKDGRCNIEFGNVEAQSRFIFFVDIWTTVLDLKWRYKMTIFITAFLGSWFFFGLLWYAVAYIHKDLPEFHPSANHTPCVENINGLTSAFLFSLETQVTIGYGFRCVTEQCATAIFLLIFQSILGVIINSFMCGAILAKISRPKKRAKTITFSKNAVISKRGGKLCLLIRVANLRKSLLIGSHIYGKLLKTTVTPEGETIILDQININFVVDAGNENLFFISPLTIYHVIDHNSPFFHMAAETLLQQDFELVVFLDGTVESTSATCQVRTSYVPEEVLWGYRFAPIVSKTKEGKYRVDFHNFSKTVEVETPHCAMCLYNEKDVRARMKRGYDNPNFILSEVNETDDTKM
Experimental: as §1
To dislodge the cell, gently bang the side of the flask with your hand. […] Centrifuge at 1,500 rpm for 6 min followed by resuspension in complete growth media and determine cell concentration. […] Under ideal growth conditions and appropriate tissue culture practices, this cell line is stable for 40-45 passages.
FluxOR Kit Components (Invitrogen F10017)
• FluxOR™ Reagent (Component A) • FluxOR™ Assay Buffer (Component B)—10× Concentrate • PowerLoad™ Concentrate (Component C)—100× Concentrate • Probenecid (Component D)—Lyophilized sample is kept at −20° C. Water soluble, 100× after solubilization in 1 ml water. […] Store at 4° C. • Thallium sulfate (Tl2SO4) Concentrate (Component G)—50 mM in water. […] Can be stored at room temperature • Stimulant Buffer (prepared at 5× final concentration in 1× FluxOR™ Chloride-Free Buffer): 7.5 mM Thallium sulfate and 0.75 mM Potassium sulfate (to give a final assay concentration of 3 mM Thallium/0.3 mM Potassium). Store at 4° C. when not in use. If kept sterile, this solution is good for months.

Kir1.1 (ROMK1) = Kir1.1 (ROMK1) (Homo sapiens (Human), UniProt P48048); experiment: ROMK Electrophysiology Assay (IonWorks Quattro whole cell voltage clamp); conditions: Chinese hamster ovary cells stably expressing Kir1.1; block at voltage step to 0 mV, 6 min compound incubation
Chain of Kir1.1 (ROMK1) (P48048 whole entry, species assumed): as the sequence (P48048 whole entry) above
Experimental: as §1
Chinese hamster ovary cells stably expressing Kir1.1 channels were maintained in T-75 flasks in cell culture media in a humidified 10% CO2 incubator at 37° C. Prior to an experiment, Kir1.1 expression was induced by overnight incubation with 1 mM sodium butyrate. […] After centrifugation, the cell pellet was resuspended in approximately 4.0 ml of bath solution and placed in the IonWorks instrument. The intracellular solution consisted of (in mM): 80 K gluconate, 40 KCl, 20 KF, 3.2 MgCl2, 3 EGTA, 5 Hepes, pH 7.4. […] Current amplitudes were measured using the IonWorks software.

Chain of hROMK1 (Kir1.1) (P48048 whole entry): as above

| SMILES | IC50 (hROMK1 (Kir1.1)) | IC50 (hROMK (hKir1.1)) | IC50 (Kir1.1 (ROMK1)) |
| --- | --- | --- | --- |
| Cc1c(C(O)CN2CCN(CC3CCc4c3ccc(F)c4C#N)CC2)ccc2c1COC2=O (centres unmarked) [Example 55, 5-fluoro-1-({4-[2-hydroxy-2-(4-methyl-1-oxo-1,3-dihydro-2-benzofuran-5-yl)ethyl]piperazin-1-yl}methyl)-2,3-dihydro-1H-indene-4-carbonitrile] | 47 nM | 15 nM | 23 nM |
| COc1cc(C(O)CN2CCN(CCc3ccc4c(c3C)COC4=O)CC2)c(F)cc1C#N (centres unmarked) [Example 24, 5-fluoro-4-(1-hydroxy-2-{4-[2-(4-methyl-1-oxo-1,3-dihydro-2-benzofuran-5-yl)ethyl]piperazin-1-yl}ethyl)-2-(methyloxy)benzonitrile] | 130 nM | 26 nM | – |
| Cc1c(CCN2CCN(CC(O)c3ccc4c(c3C)COC4=O)CC2)ccc2c1COC2=O (centres unmarked) [Example 12, 5-(1-hydroxy-2-{4-[2-(4-methyl-1-oxo-1,3-dihydro-2-benzofuran-5-yl)ethyl]piperazine-1-yl}ethyl)-4-methyl-2-benzofuran-1(3H)-one] | 46 nM | 6 nM | 13 nM |
| O=C1OCc2c1ccc(C(O)CN1CCN(CC(O)c3ccc4c(c3Cl)COC4=O)CC1)c2Cl (centres unmarked) [Example 5] | 88 nM | 13 nM | 7 nM |
| Cc1c(C(O)CN2CCN(CC3CCc4c3ccc3c4COC3=O)CC2)ccc2c1COC2=O (centres unmarked) [Example 20, 6-({4-[2-hydroxy-2-(4-methyl-1-oxo-1,3-dihydro-2-benzofuran-5-yl)ethyl]piperazin-1-yl}methyl)-1,6,7,8-tetrahydro-3H-indeno[4,5-c]furan-3-one] | 36 nM | 7 nM | 14 nM |
